# Laboratory results from patent publication US10053445B2, “Photocleavable chemical inducers of dimerization (CID) and methods of use” (Children's Medical Center Corporation, priority 2013, dated 2018).
# Tests used:
# [1] = molecular target: FK506 Binding Protein (FKBP) (Homo sapiens, UniProt P62942); settings: ligand independently; cited from earlier work
# [2] = molecular target: mutated FKBP (Homo sapiens, UniProt P62942, F37V); settings: cited from earlier work
# [3] = test system: COS cells; experiment: peroxisome translocation assay (PEX-RFP-FKBP / DHFR-Kif 1a motor domain); type: cell-based
# Protocol: Preliminary tests of Zapalog efficacy in COS cells were also carried out, using a peroxisome translocation assay adapted from Kapitein et al., 2010 (13) and illustrated in FIG. 4. The FKBP domain is coupled to RFP and a peroxisome-binding domain (PEX). The DHFR domain is fused to the motor domain of the kinesin Kif 1a. In the absence of a CID to couple these two proteins, the peroxisomes are stationary and located near the nucleus while the motor (visualized by immunocytochemistry) is diffuse in the cytosol (FIG. 4 DMSO). […] In a live-imaging experiment (FIG. 5), the addition of Zapalog initiated clear movement of the peroxisomes in less than 2 minutes. The dispersal of peroxisomes was reversed by exposure to a 405 nm laser. […] 5) the affinity of Zapalog in vivo is high enough to permit the transport of an organelle by a tethered motor. 6) Zapalog is photo-cleavable in vivo by 405 nm light. […] The experiments described herein seek to characterize Zapalog in sufficient detail to enable its use as a photo-cleavable CID. In particular, experiments were designed to determine the kinetics of Zapalog-induced dimerization and cleavage and whether it could be used to recreate a fully functional split kinesin for studies of motor interactions.
# [4] = HPLC analysis of Zapalog before and after exposure to 405 nm light; type: physicochemical; settings: after exposure to 405 nm light
# Protocol: Zapalog was synthesized and 10 mg of TLC purified material was determined to be >98% pure by LCMS/HPLC and containing less than 0.1% of the monomeric ligands TMP and SLF.
# [5] = test system: COST cells; experiment: YFP reporter relocalization to outer mitochondrial membrane (YFP-DHFR / Tom20-mCherry-FKBP); type: cell-based
# Excerpt: In one set of experiments, Zapalog's efficacy as a dimerizing agent and the efficacy of light-induced cleavage was examined in simple assays of subcellular localization of a YFP reporter adapted from Komatsu et al., (Komatsu et al. Nature Methods 7: 206-8) and illustrated in FIG. 7 (optionally, a GFP or other reporter could have been used). An assay of Zapalog function was developed based on tethering a YFP reporter to the outer mitochondrial membrane of COST cells. In this assay, the YFP reporter was fused to the DHFR domain and, by default, was cytosolic. The FKBP domain was bound to the outer membrane of mitochondria with the N-terminus sequence of Tom20. The FKBP construct was tagged with mCherry. […] Subsequent 405 nm illumination caused immediate (<5 sec) release of YFP back to the cytosol. This redistribution was followed in video microscopy and quantified as a ratio of membrane bound to cytoplasmic fluorescence intensity
# Sequence of FK506 Binding Protein (FKBP) (P62942 whole entry): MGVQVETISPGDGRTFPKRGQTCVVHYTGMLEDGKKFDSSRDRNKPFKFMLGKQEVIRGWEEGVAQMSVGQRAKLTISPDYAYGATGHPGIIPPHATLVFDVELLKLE
# Sequence of mutated FKBP (P62942 2-108 F37V limits assumed): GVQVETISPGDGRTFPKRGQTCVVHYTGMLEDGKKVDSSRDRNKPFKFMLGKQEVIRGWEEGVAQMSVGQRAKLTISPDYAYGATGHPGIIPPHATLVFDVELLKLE
smiles,measurement,setting,value
CCC(C)(C)C(=O)C(=O)N1CCCCC1C(=O)OC(CCc1ccc(OC)c(OC)c1)c1cccc(N)c1 (stereo not drawn) [SLF],affinity,[1],~1 nM
CCC(C(=O)N1CCCCC1C(=O)O[C@H](CCc1ccc(OC)c(OC)c1)c1cccc(OCC(=O)O)c1)c1cc(OC)c(OC)c(OC)c1 (stereo partly drawn) [SLF′],Kd,[2],0.094 nM
CCC(C)(C)C(=O)C(=O)N1CCCC[C@H]1C(=O)O[C@H](CCc1ccc(OC)c(OC)c1)c1cccc(NC(=O)CCCOc2cc([N+](=O)[O-])c(C(C)OCCOc3c(OC)cc(Cc4cnc(N)nc4N)cc3OC)cc2OC)c1 (stereo partly drawn) [Zapalog],binding to DHFR and FKBP domains in vivo,[3],can bind to the DHFR and FKBP domains in vivo
same,heterodimerization,[3],can cause heterodimerization
same,toxicity to cells,[3],not toxic to cells
same,translocation of motor domain to peroxisomes and redistribution of peroxisomes,"[3]; 1 uM, in the dark, COS cells",caused the translocation of the motor domain to the peroxisomes and the redistribution of the peroxisomes to the periphery of the cell
same,effect of exposure of treated cells to light,"[3]; COS cells, light after CID addition",caused the motor to detach from peroxisomes and resume its diffuse distribution
same,time to clear movement of peroxisomes after addition,[3]; live imaging,less than 2 minutes
same,dispersal of peroxisomes after 405 nm laser,"[3]; live imaging, 405 nm laser",reversed
same,photolytic cleavage by HPLC,[4],complete photolytic cleavage
same,time to relocalization of YFP to the mitochondrial surface,[5]; 1 μM in the dark,4 to 5 min
same,time to release of YFP back to the cytosol,[5]; subsequent 405 nm illumination,< 5 s
